# Tested on: C. elegans transcriptome
# Assay: Transcriptome profiling (Affymetrix microarrays), differentially expressed genes
# Format: in vivo, Caenorhabditis elegans
# Description: To gain additional insight into the effect of LK molecules on C. elegans, young-adult, wild-type worms were treated with each drug at 100 µM for 8 h in the absence of pathogen. RNA was collected, and transcriptome profiling was performed.
# Data were determined using Affymetrix microarrays, as described in Materials and Methods. Download Table S3, XLSX file, 0.07 MB.
# Transcriptome profiling was performed on ∼6,000 wild-type, young adult worms incubated with either LK molecules or DMSO for 8 h. RNA isolation was performed using TRIzol extraction, followed by cleanup using RNeasy columns according to the manufacturer’s protocol. Each condition was analyzed in triplicate. Microarray data have been deposited in the GEO database, accession number GSE137516. […] Clustering and generation of the heat map was performed using Cluster 3.0 ([98]) and Treeview ([99]), respectively. Fold change of genes were normalized to average fold change of that gene over all clustered conditions. Genes and conditions were clustered using Euclidean distance and average linkages. […] Microarray data for non-LK molecules were collected from GEO omnibus. WormEXP was used as a secondary method for confirming statistical significance of potential pathways stimulated by each of the LK molecules ([100]). Gene ontologies were generated using DAVID ([101], [102]).
# [1] = Downregulated genes, Affy_ID 171867_x_at
compound,measurement,setting,value
CNC(=O)Oc1c(Br)cc2sc(=O)oc2c1Br [LK34],Fold Change,"Affy_ID 171867_x_at, listed under genes C09B9.6, F36H12.7, K07F5.1, R05F9.13, R13H9.2, R13H9.4, T13F2.10, T13F2.11, Y59E9AR.1, Y59E9AR.7, ZK354.1, downregulated genes",0.2366
same,"Fold Change, gene ZK354.1",[1],0.2366
same,"Fold Change, gene ZK354.10",[1],0.2366
same,"Fold Change, gene ZK354.11",[1],0.2366
same,"Fold Change, gene ZK354.4",[1],0.2366
same,"Fold Change, gene ZK354.5",[1],0.2366
same,"Fold Change, gene ZK525.1","Downregulated genes, Affy_ID 172214_x_at",0.3205
same,"Fold Change, gene ZK484.8","Downregulated genes, Affy_ID 172381_x_at",0.3874
same,"Fold Change, gene ZK546.3","Downregulated genes, Affy_ID 172798_x_at",0.1968
same,"Fold Change, gene ZK131.7","Downregulated genes, Affy_ID 172871_x_at",0.3375
same,"Fold Change, gene ZK546.6","Downregulated genes, Affy_ID 172900_x_at",0.1968
same,"Fold Change, gene ZK669.2","Downregulated genes, Affy_ID 179491_at",0.229
same,"Fold Change, gene ZK550.2","Downregulated genes, Affy_ID 179513_at",0.3085
same,"Fold Change, gene ZK484.5","Downregulated genes, Affy_ID 182193_at",0.3399
same,"Fold Change, gene ZK593.1","Downregulated genes, Affy_ID 189095_at",0.4248
same,"Fold Change, gene ZK666.7","Downregulated genes, Affy_ID 194066_s_at",0.02705
same,Fold Change,"Gene C05C12.3, Affy_ID 183355_s_at, downregulated genes",0.4055
same,Fold Change,"Gene M163.1, Affy_ID 177298_at, downregulated genes",0.426
same,Fold Change,"Gene R01E6.3, Affy_ID 189628_at, downregulated genes",0.3684
same,Fold Change,"Gene R03E9.1, Affy_ID 193723_s_at, downregulated genes",0.2017
same,Fold Change,"Gene R03E9.3, Affy_ID 174840_s_at, downregulated genes",0.4768
same,Fold Change,"Gene R05F9.3, Affy_ID 172725_x_at, downregulated genes",0.4019
same,Fold Change,"Gene R05F9.8, Affy_ID 172724_x_at, downregulated genes",0.2519
same,Fold Change,"Gene R05G6.10, Affy_ID 192058_at, downregulated genes",0.3616
same,Fold Change,"Gene R12C12.1, Affy_ID 190616_at, downregulated genes",0.2442
same,Fold Change,"Gene R12E2.9, Affy_ID 180698_s_at, downregulated genes",0.3881
same,Fold Change,"Gene R52.3, Affy_ID 177369_at, downregulated genes",0.4244
same,Fold Change,"Gene T01C3.4, Affy_ID 188106_at, downregulated genes",0.02189
same,Fold Change,"Gene T02B11.3, Affy_ID 174051_s_at, downregulated genes",0.4182
same,Fold Change,"upregulated gene T13H2.4, Affy_ID 183082_s_at",2.522
same,Fold Change,"upregulated gene T14F9.3, Affy_ID 173287_s_at",3.284
same,Fold Change,"upregulated gene T14G8.1, Affy_ID 193596_s_at",3.752
same,Fold Change,"upregulated gene T15B7.3, Affy_ID 188456_at",3.308
same,Fold Change,"upregulated gene T19B10.2, Affy_ID 181715_s_at",5.383
same,Fold Change,"upregulated gene T20F7.6, Affy_ID 173076_s_at",3.038
same,Fold Change,"upregulated gene T21C12.2, Affy_ID 193009_at",2.072
same,Fold Change,"upregulated gene T21E3.3, Affy_ID 173760_s_at",2.777
same,Fold Change,"upregulated gene T22B7.3, Affy_ID 181552_at",4.555
same,Fold Change,"upregulated gene T22B7.7, Affy_ID 173688_s_at",13.7199
same,Fold Change,"upregulated gene T22F3.3, Affy_ID 176676_s_at",2.752
same,Fold Change,"upregulated gene T24B8.3, Affy_ID 175022_s_at",3.173
same,Fold Change,"upregulated gene T24B8.5, Affy_ID 178297_at",134.612
same,Fold Change,"upregulated gene T24C4.4, Affy_ID 182815_at",2.661
same,Fold Change,"upregulated gene T25G12.5, Affy_ID 174581_s_at",2.002
same,Fold Change,"upregulated gene T26C5.1, Affy_ID 190852_at",2.137
same,Fold Change,"upregulated gene T27A3.2, Affy_ID 192961_at",2.203
same,Fold Change,"upregulated gene T27E4.3, Affy_ID 172901_x_at",16.0293
same,Fold Change,"upregulated gene T28D9.3, Affy_ID 187493_at",2.783
same,Fold Change,"upregulated gene VZK822L.1, Affy_ID 187997_s_at",2.806
same,Fold Change,"upregulated gene W01F3.2, Affy_ID 173274_s_at",7.505
same,Fold Change,"upregulated gene W02A2.7, Affy_ID 193943_at",2.753
same,Fold Change,"upregulated gene W03C9.7, Affy_ID 194039_s_at",2.373
same,Fold Change,"upregulated gene W03F8.10, Affy_ID 174843_at",5.242
same,Fold Change,"upregulated gene W03F9.4, Affy_ID 189587_s_at",16.8516
same,Fold Change,"upregulated gene W04A8.4, Affy_ID 178654_s_at",22.7121
same,Fold Change,"upregulated gene W04B5.1, Affy_ID 180966_s_at",3.157
same,Fold Change,"upregulated gene W04B5.3, Affy_ID 173153_s_at",2.678
same,Fold Change,"upregulated gene W05G11.6, Affy_ID 192581_s_at",4.517

# Source: paper PMC7845594, “Novel Immune Modulators Enhance Caenorhabditis elegans Resistance to Multiple Pathogens” (mSphere, 2021)
